Laboratory results as given in patent US5545629A, “5-ethoxy-2'-deoxyuridines” (Montefiore Medical Center, priority 1994, dated 1996).
Like-named read-outs stand apart in the source and are kept apart here. Each block holds one molecule with its values, some of them ahead of it.

Assays:
[1] = tested on: HT-29 cells; experiment: growth inhibition of HT-29 cells, 6 days, sulforhodamine B staining; format: cell-based, human; conditions: for IC50: HT-29, 6 days, sulforhodamine B
Experimental: The growth inhibitory effect of 5-ethoxy-2'-deoxyuridine was compared with other analogous 5-substituted-2'-deoxyuridine compounds by determining the IC50 of each compound in an assay which measured the growth inhibition of HT-29 cells. The HT-29 cells were placed in 96 well plates (2×10^4 cells per well) in RPMI 1640 with 10% added fetal bovine serum. After allowing the cells to attach overnight, several concentrations of the test compounds were added. After 6 days, cell numbers were quantitated by staining with sulforhodamine B (Skehan et al., J. Natl. Canc. Inst, 82, 1107-1112, 1990).

[2] = tested on: HT-29 human carcinoma cells; experiment: in vitro clonogenic assay (cloning efficiency) with HT-29 cells, 72 h drug exposure; format: cell-based; conditions: for IC50: read-out: IC50 for 5-fluorouracil (50% reduction of cloning efficiency)
Experimental: For assessment of the antitumor activity of 5-ethoxy-2'-deoxyuridine, an in vitro clonogenic assay was used. The assay was based on a modification of procedures first described by Puck and Marcus (Proc. Natl. Acad. Sci. (USA) 41:432-437, 1955). […] 3:225-231, 1991; A. F. Sobrero et al., J. Natl. Cancer Inst. 85:1937-1944, 1993).
HT-29 human carcinoma cells (ATCC No. HTB-38) were maintained in RPMI 1640 with 10% v/v fetal bovine serum (GIBCO) in a humidified, 5% CO2 atmosphere at 37° C. Cells were plated in 24 well plates (150 cells per well) in RPMI 1640 medium with 10% v/v dialyzed fetal bovine serum. After allowing cell attachment to proceed overnight, combinations of interferon-α (500 units/ml; Roferon-A, Roche Labs.), 5-ethoxy-2'-deoxyuridine (150 μM), in the presence of increasing concentrations of 5-fluorouracil (as specified in the Table) were added. The various agents were diluted in phosphate-buffered saline, and control wells received vehicle alone. After 72 hours, drug containing medium was removed and replaced with RPMI 1640 with 10% v/v fetal bovine serum. Cell colonies were allowed to grow for an additional 7-10 days, at which point they were stained and counted. […] Data are means of at least 3 determinations. The IC50 values for 5-fluorouracil were calculated graphically by determining the concentration of 5-fluorouracil that reduced cloning efficiency by 50% from the cloning efficiency value measured in the absence of 5-fluorouracil.

IC50 [1]: > 3000 µM
Molecule: 5-propynyloxy-2'-deoxyuridine

IC50 ([1]; Homo sapiens, 144 h): 2.5 µM
Molecule: CCc1cn([C@H]2C[C@H](O)[C@@H](CO)O2)c(=O)[nH]c1=O [5-ethyl-2'-deoxyuridine]

IC50 ([1]; Homo sapiens, 144 h): 750 µM
Molecule: CCOc1cn([C@H]2C[C@H](O)[C@@H](CO)O2)c(=O)[nH]c1=O [5-ethoxy-2'-deoxyuridine]
toxicity relative to the ethyl analog ([1]; HT-29 cytotoxicity, fraction of the toxicity of the ethyl analog): about 1/300 | toxicity relative to the methyloxy analog ([1]; HT-29 cytotoxicity, fraction of the toxicity of the methyloxy analog): about 1/27 | toxicity relative to the propyloxy analog ([1]; HT-29 cytotoxicity, fraction of the toxicity of the propyloxy analog): about 1/2 | toxicity compared with many other prior art 5-substituted-2'-deoxyuridines that have been tested ([1]; statement in words): less toxic | activity at 150 µM ([2]; Homo sapiens, HT-29, 72 h, 5-ETH 150 μM alone, no 5-FU (0), read-out: Cloning Efficiency (% of control)): 89%

IC50 ([1]; Homo sapiens, 144 h): 28 µM
Molecule: COc1cn([C@H]2C[C@H](O)[C@@H](CO)O2)c(=O)[nH]c1=O [5-methoxy-21-deoxyuridine]

Molecule: O=c1[nH]cc(F)c(=O)[nH]1 [5-FU, 5-fluorouracil]
Cloning Efficiency (% of control) ([2]; 5-FU 0.025 μM with 5-ETH 150 μM + IFN 500 u/ml, 4320 min): 89 % of control | Cloning Efficiency (% of control) ([2]; 5-FU 0.05 μM with 5-ETH 150 μM + IFN 500 u/ml, 4320 min): 81 % of control | Cloning Efficiency (% of control) ([2]; 5-FU 0.05 μM with 5-ETH 150 μM, 4320 min): 81 % of control | Cloning Efficiency (% of control) ([2]; 5-FU 0.10 μM with 5-ETH 150 μM + IFN 500 u/ml, 4320 min): 38 % of control | Cloning Efficiency (% of control) ([2]; 5-FU 0.10 μM with 5-ETH 150 μM, 4320 min): 80 % of control | Cloning Efficiency (% of control) ([2]; 5-FU 0.15 μM with 5-ETH 150 μM + IFN 500 u/ml, 4320 min): 9 % of control | Cloning Efficiency (% of control) ([2]; 5-FU 0.25 μM with 5-ETH 150 μM + IFN 500 u/ml, 4320 min): 0 % of control | Cloning Efficiency (% of control) ([2]; 5-FU 0.25 μM with 5-ETH 150 μM, 4320 min): 60 % of control | Cloning Efficiency (% of control) ([2]; 5-FU 0.25 μM with IFN 500 u/ml, 4320 min): 97 % of control | Cloning Efficiency (% of control) ([2]; 5-FU 0.50 μM with 5-ETH 150 μM, 4320 min): 38 % of control | Cloning Efficiency (% of control) ([2]; 5-FU 0.50 μM with IFN 500 u/ml, 4320 min): 83 % of control | Cloning Efficiency (% of control) ([2]; 5-FU 1.0 μM with 5-ETH 150 μM, 4320 min): 13 % of control | Cloning Efficiency (% of control) ([2]; 5-FU 1.0 μM with IFN 500 u/ml, 4320 min): 56 % of control | Cloning Efficiency (% of control) ([2]; 5-FU 1.5 μM with 5-ETH 150 μM, 4320 min): 4 % of control | Cloning Efficiency (% of control) ([2]; 5-FU 1.5 μM with IFN 500 u/ml, 4320 min): 18 % of control | Cloning Efficiency (% of control) ([2]; 5-FU 2.0 μM with IFN 500 u/ml, 4320 min): 8 % of control | Cloning Efficiency (% of control) ([2]; 5-FU 3.0 μM with IFN 500 u/ml): 1 % of control | IC50 ([2]; Homo sapiens, HT-29, 72 h, 5-FU alone (CONT, PBS)): 2 µM | IC50 ([2]; Homo sapiens, HT-29, 72 h, 5-FU with 5-ETH 150 μM + IFN 500 u/ml): 0.08 µM | IC50 ([2]; Homo sapiens, HT-29, 72 h, 5-FU with 5-ETH 150 μM): 0.35 µM | IC50 ([2]; Homo sapiens, HT-29, 72 h, 5-FU with IFN 500 u/ml): 1.1 µM | activity at 0.25 µM ([2]; Homo sapiens, HT-29, 72 h, 5-FU 0.25 μM alone (CONT, PBS), read-out: Cloning Efficiency (% of control)): 104% | activity at 0.5 µM ([2]; Homo sapiens, HT-29, 72 h, 5-FU 0.50 μM alone (CONT, PBS), read-out: Cloning Efficiency (% of control)): 93% | activity at 1 µM ([2]; Homo sapiens, HT-29, 72 h, 5-FU 1.0 μM alone (CONT, PBS), read-out: Cloning Efficiency (% of control)): 87% | activity at 1.5 µM ([2]; Homo sapiens, HT-29, 72 h, 5-FU 1.5 μM alone (CONT, PBS), read-out: Cloning Efficiency (% of control)): 60% | activity at 2 µM ([2]; Homo sapiens, HT-29, 72 h, 5-FU 2.0 μM alone (CONT, PBS), read-out: Cloning Efficiency (% of control)): 55% | activity at 3 µM ([2]; Homo sapiens, HT-29, 72 h, 5-FU 3.0 μM alone (CONT, PBS), read-out: Cloning Efficiency (% of control)): 27% | activity at 4 µM ([2]; Homo sapiens, HT-29, 72 h, 5-FU 4.0 μM alone (CONT, PBS), read-out: Cloning Efficiency (% of control)): 5%

IC50 ([1]; Homo sapiens, 144 h): 325 µM
Molecule: CCCOc1cn([C@H]2C[C@H](O)[C@@H](CO)O2)c(=O)[nH]c1=O [5-propyloxy-2'-deoxyuridine]
